According to patent publication US20190321345A1, “GLUT4 Selective Inhibitors for Cancer Therapy” (Emory University, priority 2016, published 2019):

Assays:
[1] = tested on: MCL-1; assay: Immunoblot of MCL-1 expression in MM cells; assay type: cell-based; conditions: L363 cells vs JJN3, 15 μM for 18 hours
[2] = tested on: KMS11 cells; assay: Cell viability by AnnexinV/DAPI staining and flow cytometry in KMS11 cells; assay type: cell-based; conditions: compared with compounds 8, 9, 17
Experimental: (§1) IC50 studies were performed using the CellTiter-Glo assay (Promega, Madison, Wis.). 20,000 cells in 100 ul complete RPMI 1640 medium were plated per well in 96-well plates, with a concentration range of individual compounds. After 72 h incubation, 100 uL Glo reagent were added to each well and luminescence was measured using a Biotek Synergy 4 multimode plate reader. Cell number was assessed by trypan blue standing and an automatic cell counter (Biorad). For cell viability assays 0.125×10^6 cells/mL were treated with the indicated concentration of drug, washed with 1×PBS and evaluated for viability by AnnexinV/DAPI staining and flow cytometry. Data analysis was per-formed with the FCS express version 3 (De Novo software, Los Angeles).
They were selected and their effect on cell viability evaluated by AnnexinV/DAPI staining and flow cytometric analysis.

[3] = target: T1, GLUT4 (Homo sapiens, UniProt P14672); assay: 2-DOG transport in HEK293 cells over-expressing GLUT4; assay type: cell-based; conditions: for IC50: pre-treated 5 minutes, 2-DOG uptake 4 min, cells lacking GLUT1, read-out: IC50 (inhibition of 2-DOG transport in HEK cells over-expressing GLUT isoforms) GLUT4
T1 construct: expressed in transfected cells; host or cells: HEK293 stably expressing GLUT1 shRNA
T1 sequence (P14672 1-509): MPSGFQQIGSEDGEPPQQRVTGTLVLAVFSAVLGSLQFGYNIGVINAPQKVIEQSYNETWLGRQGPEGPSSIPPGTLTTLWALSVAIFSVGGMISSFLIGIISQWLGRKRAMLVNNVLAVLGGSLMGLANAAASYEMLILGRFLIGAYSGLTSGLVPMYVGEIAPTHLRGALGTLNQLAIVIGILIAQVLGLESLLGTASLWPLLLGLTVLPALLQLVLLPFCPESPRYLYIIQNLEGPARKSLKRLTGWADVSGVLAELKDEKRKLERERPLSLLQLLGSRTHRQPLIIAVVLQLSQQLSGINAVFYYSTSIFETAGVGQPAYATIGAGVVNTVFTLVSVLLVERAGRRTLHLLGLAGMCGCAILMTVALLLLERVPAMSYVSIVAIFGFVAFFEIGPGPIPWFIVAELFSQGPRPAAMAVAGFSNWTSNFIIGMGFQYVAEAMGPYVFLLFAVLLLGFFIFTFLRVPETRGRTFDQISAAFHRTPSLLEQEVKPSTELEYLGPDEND
Experimental: (§2) Tissue culture plates were pretreated with 25 μg/ml polyethyleneimine (Fluka, catalogue number P3143) in 150 mM NaCl for 20min to let cells adhere. JNN3 cells were subsequently plated and grown to 40-60% confluency in complete RPMI 1640 medium. HEK293 GLUT overexpressing cells were plated at 400,000 cells/ml overnight. Cells were then washed with glucose-free HEPES buffer twice and starved for 30 min. The uptake of 2-[^3H] deoxy-D-glucose (2-DOG) (50 μM) was measured in glucose-free HEPES buffer for 4-6 min at 37° C. Compound 20 (20 μM) was added 5-6 min prior to the addition of glucose depending on the specific assay. For the HEK293 GLUT overexpressing cells, non-specific uptake was measured in non-transfected HEK293 cells containing the shRNA GLUT1 knockdown and was subtracted from the experimental values. Data are plotted as percent uptake relative to unexposed HEK293 cultures. Data were normalized to fit by nonlinear regression analysis using GraphPad Prism software.
(§3) Compound 20 was further screened for GLUT4 selectivity by evaluating inhibition of glucose transport in HEK 293 cells exogenously over-expressing human GLUTs-1, -2, -3, -4, or -8 that also stably express GLUT1 shRNA (except the GLUT1 overexpressing cell line) to knock down endogenous GLUT1.
(§4) Glucose transport in HEK293 cells over-expressing GLUT1 or over-expressing GLUT4 or GLUT8 in cells lacking GLUT1 were used to evaluate inhibition of glucose transport. Cells were pre-treated with compound for 5 minutes followed by evaluation of […] uptake for 4 min at […]. Non-specific uptake was measured in nontransfected HEK293 cells containing the shRNA GLUT1 knockdown and was subtracted from the experimental values.

[4] = tested on: JJN3 cells expressing GLUT4 shRNA; assay: Viability/proliferation of JJN3 cells with GLUT4 shRNA (trypan blue, cell counter); assay type: cell-based; conditions: 15 μM, 72 hours
Experimental: as §1
(§5) Impact of compound 20 was evaluated on glucose uptake in MM cells.

[5] = tested on: MM.1S cells; assay: Cell death with dexamethasone or melphalan co-treatment in MM.1S cells (AnnexinV/DAPI); assay type: cell-based; conditions: 72 hr
Experimental: (§6) Cell death was evaluated by AnnexinV/DAPI flow cytometric staining.
as §1
(§7) KD of GLUT4 and glucose deprivation lead to variable suppression of the pro-survival anti-apoptotic protein MCL-1. […] Compound 20 was evaluated for sensitizing MM patient samples to ABT-199. CD38+/CD45− gated myeloma cells from myeloma patient bone marrow aspirates were evaluated for viability after 48 hrs of treatment. […] To rule out the cytotoxic effect of co-treatment of compound 20 with either ABT-199 or dexamethasone on other non-myeloma cell populations, cell viability of CD38−/CD45− and CD38−/CD45+ cells were analyzed within the MM patient sample bone marrow aspirate (FIG. 6G). […]

[6] = tested on: JJN3 cells; assay: 2-[3H]deoxyglucose uptake in JJN3 cells; assay type: cell-based; conditions: 20 μM, 6 min pre-treatment, 6 min uptake at 37 degrees C; compared with GLUT4 shRNA
Experimental: as §2, §5

[7] = tested on: KMS11-GLUT1 cells; assay: Proliferation of KMS11-GLUT1 myeloma cells (Cell Titre Glo); assay type: cell-based; conditions: inhibition of proliferation, 72 hours
Experimental: as §1
(§8) Compound were selected as a lead based on its low IC50, selectivity for inhibition of glucose transport through GLUT4, and inhibition of the KMS11-GFP cell line proliferation in contrast to the GLUT1 expressing isogenic line. Compounds were assessed in a high-throughput proliferation-based assay using an isogenic MM (KMS11) cell line pair overexpressing GLUT1 or GFP (as a control) (model of screen is depicted in FIG. 2A). […] Isogenic KMS11-GFP/GLUT1 overexpressing myeloma cell lines were treated with a dose range of the indicated test compound for 72 hours followed by evaluation of viable cell number by Cell Titre Glo assay

[8] = tested on: CD38-/CD45- and CD38-/CD45+ cells; assay: Viability of normal non-myeloma cell populations in MM patient bone marrow aspirate; assay type: cell-based; conditions: in combination with either ABT-199 or Dex
Description: Data from patient #6 is representative of patient samples evaluated.
(§9) KD of GLUT4 and glucose deprivation lead to variable suppression of the pro-survival anti-apoptotic protein MCL-1. […] Cells resistant to glucose deprivation-induced cell death increase binding of pro-apoptotic BIM to BCL-2, facilitating sensitization to the BH3 mimetic venetoclax (ABT-199). 22 Treatment of glucose-deprived resistant cells with ABT-199 releases the additional BIM bound to BCL-2, inducing apoptosis. […] Compound 20 was evaluated for sensitizing MM patient samples to ABT-199. CD38+/CD45− gated myeloma cells from myeloma patient bone marrow aspirates were evaluated for viability after 48 hrs of treatment. […] The ability of compound 20 to sensitize MM cells and induce cell death to the commonly used steroid dexamethasone (Dex) was tested. Compound 20 treated MM.1S cells were exposed to a dose range of Dex (0.00195 μM to 1 μM) for 72 hr (FIG. 6E). […] To rule out the cytotoxic effect of co-treatment of compound 20 with either ABT-199 or dexamethasone on other non-myeloma cell populations, cell viability of CD38−/CD45− and CD38−/CD45+ cells were analyzed within the MM patient sample bone marrow aspirate (FIG. 6G). […] Lastly, compound 20 was also found to sensitize MM.15 cells to a dose range of the alkylating agent melphalan (Mel) that was assessed in a 72 hr treatment period (FIG. 6H).

[9] = tested on: L363 cells; assay: Cell death with ABT-199 co-treatment in L363 cells (AnnexinV/DAPI); assay type: cell-based; conditions: 10 μM with 0.025 μM-3 μM ABT-199, 72 hours
Experimental: Compound 20 decreasing MCL-1 expression and sensitizing MM cell lines to Venetoclax (ABT-199),
as §6
as §1, with “Data analysis was per-formed with the FCS express version 3 (De Novo software, Los Angeles).” left out
as §7

[10] = tested on: follower lung cancer cell; assay: Follower lung cancer cell invasion; assay type: cell-based; conditions: FIG. 7
[11] = tested on: KMS11-GFP cells; assay: Proliferation of KMS11-GFP myeloma cells (Cell Titre Glo); assay type: cell-based
Experimental: as §1, §8

[12] = tested on: FAK; assay: FAK activation, scratch assay; assay type: cell-based; conditions: FIG. 8
[13] = tested on: CD38+/CD45- gated myeloma cells from myeloma patient bone marrow aspirates; assay: Cell death of myeloma cells from MM patient bone marrow aspirates; assay type: cell-based, human
Experimental: CD38-phyocerythrin and CD45-allophycocyanin-Cy7 positive myeloma cells were evaluated for cell death.
as §9, with “tested.” for “tested. Compound 20 treated MM.1S cells were exposed to a dose range of Dex (0.00195 μM to 1 μM) for 72 hr (FIG. 6E).”

[14] = tested on: JJN3 cells; assay: Cell death with ABT-199 co-treatment in JJN3 cells (AnnexinV/DAPI); assay type: cell-based; conditions: co-treatment with ABT-199
Experimental: as §6, §1, §7

[15] = target: T2, GLUT8 (Homo sapiens, UniProt Q9NY64); assay: 2-DOG transport in HEK293 cells over-expressing GLUT8; assay type: cell-based; conditions: pre-treated 5 minutes, 2-DOG uptake 4 min; cells lacking GLUT1; read-out: IC50 (inhibition of 2-DOG transport in HEK cells over-expressing GLUT isoforms) GLUT8
T2 construct: expressed in transfected cells; host or cells: HEK293 stably expressing GLUT1 shRNA
T2 sequence (Q9NY64 1-477): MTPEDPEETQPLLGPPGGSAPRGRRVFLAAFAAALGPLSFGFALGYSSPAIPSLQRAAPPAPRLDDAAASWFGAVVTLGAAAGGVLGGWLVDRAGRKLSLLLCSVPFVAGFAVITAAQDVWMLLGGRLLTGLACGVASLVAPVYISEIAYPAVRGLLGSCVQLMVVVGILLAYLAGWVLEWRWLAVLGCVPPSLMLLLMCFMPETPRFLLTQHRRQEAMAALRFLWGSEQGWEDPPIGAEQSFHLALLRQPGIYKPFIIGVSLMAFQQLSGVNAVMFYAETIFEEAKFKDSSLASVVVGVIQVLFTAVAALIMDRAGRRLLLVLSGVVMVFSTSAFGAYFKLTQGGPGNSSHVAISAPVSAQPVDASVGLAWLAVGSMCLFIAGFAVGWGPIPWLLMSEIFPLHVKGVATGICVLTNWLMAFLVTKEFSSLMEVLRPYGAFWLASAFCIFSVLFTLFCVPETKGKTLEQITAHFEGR
Experimental: as §2, §3, §4

[16] = tested on: H1299 cell; assay: H1299 cell invasion; assay type: cell-based, human; conditions: FIG. 9

| IC50 [15] | Structure (SMILES) | MCL-1 expression [1] | cell death in KMS11 cells [2] | selectivity of glucose transport inhibition among human GLUTs-1, -2, -3, -4, -8 ([3]; HEK 293 cells over-expressing human GLUTs, 4 minute uptake of 2-DOG) | IC50 [3] | viable cell counts in GLUT4 knockdown cells [4] | sensitization to melphalan (Mel) ([5]; 10 μM with 0.01 μM-4 μM melphalan) | sensitization to dexamethasone (Dex), cell death in MM.1S ([5]; 10 μM with Dex 0.00195 μM to 1 μM) | 2-DOG uptake in JJN3 cells [6] | EC50 [7] | viability of normal non-myeloma cell populations [8] | sensitivity to ABT-199, L363 cell line [9] | follower lung cancer cell invasion [10] | EC50 ([11]; inhibition of proliferation, 72 hours, Cell Titre Glo) | impact on proliferation in KMS11-GFP cells compared with KMS11-GLUT1 cells ([11]; isogenic cell line pair) | FAK activation [12] | sensitization of MM patient samples to combination with dexamethasone ([13]; 0.5 μM dexamethasone and 10 μM compound 20, 48 hr) | relapse/refractory patient samples with greater apoptosis on co-treatment with ABT-199 than either drug alone ([13]; 10 μM with 0.5 μM ABT-199, 48 hrs) | sensitivity to ABT-199, JJN3 cell line [14] | H1299 cell invasion [16] |
| --- | --- | --- | --- | --- | --- | --- | --- | --- | --- | --- | --- | --- | --- | --- | --- | --- | --- | --- | --- | --- |
|  | COc1ccc(CC(=O)N(Cc2ccncc2)Cc2cccc(OCCc3ccc(F)cc3)c2)cc1 [Compound 20, N-(3-(4-fluorophenethoxy)benzyl)-2-(4-methoxyphenyl)-N-(pyridin-4-ylmethyl)acetamide] | significantly reduced | greater cell death | selective for GLUT4 over GLUTs 1, 2, 3 and 8 | 18.2 µM | no further reduction | sensitize | significant sensitization and cell death | effectively reduced | 21.8 µM | did not impact the viability | increased sensitivity to ABT-199 | inhibits follower lung cancer cell invasion | 13.4 µM | greater impact on proliferation in KMS11-GFP cells | inhibits FAK activation | sensitized | 4 of 7 | increased sensitivity to ABT-199 |  |
| 6 µM | COc1ccc(C(=O)N(Cc2ccncc2)Cc2cccc(OCCc3ccc(F)cc3)c2)cc1 [Compound 26] |  |  |  | 3.5 µM |  |  |  |  |  |  |  |  |  |  |  |  |  |  | inhibits H1299 cell invasion |
